{
  "source": "ChEMBL document CHEMBL2440076",
  "about": "“New triarylpyrazoles as broad-spectrum anticancer agents: design, synthesis, and biological evaluation” (Eur J Med Chem, 2013)",
  "assay_type_in_all_cases": "functional",
  "key": {"T47D [1]": {"system": "T47D", "experiment": "Growth inhibition of human T47D cells assessed as cell growth at 5X10'-8 M after 48 hrs by sulforhodamine B assay", "settings": "read-out: Activity"}, "MDA-MB-435 [2]": {"system": "MDA-MB-435", "experiment": "Growth inhibition of human MDA-MB-435 cells assessed as cell growth at 5X10'-7 M after 48 hrs by sulforhodamine B assay", "settings": "MDA-MB-435, 48 h, read-out: Activity"}, "NCI-H23": {"system": "NCI-H23", "experiment": "Growth inhibition of human NCI-H23 cells assessed as cell growth at 5X10'-7 M after 48 hrs by sulforhodamine B assay", "settings": "NCI-H23, 48 h, read-out: Activity"}, "HCT-15": {"system": "HCT-15", "experiment": "Growth inhibition of human HCT15 cells assessed as cell growth at 5X10'-5 M after 48 hrs by sulforhodamine B assay", "settings": "HCT-15, 48 h, read-out: Activity"}, "T47D [3]": {"system": "T47D", "experiment": "Growth inhibition of human T47D cells assessed as cell growth at 5X10'-9 M after 48 hrs by sulforhodamine B assay", "settings": "read-out: Activity"}, "ACHN": {"system": "ACHN", "experiment": "Growth inhibition of human ACHN cells assessed as cell growth at 5X10'-5 M after 48 hrs by sulforhodamine B assay", "settings": "read-out: Activity"}, "SK-MEL-5": {"system": "SK-MEL-5", "experiment": "Growth inhibition of human SK-MEL-5 cells assessed as cell growth at 5X10'-7 M after 48 hrs by sulforhodamine B assay", "settings": "SK-MEL-5, 48 h, read-out: Activity"}, "COLO 205": {"system": "COLO 205", "experiment": "Growth inhibition of human COLO205 cells assessed as cell growth at 5X10'-5 M after 48 hrs by sulforhodamine B assay", "settings": "COLO 205, 48 h, read-out: Activity"}, "NCI-H522": {"system": "NCI-H522", "experiment": "Growth inhibition of human NCI-H522 cells assessed as cell growth at 5X10'-6 M after 48 hrs by sulforhodamine B assay", "settings": "NCI-H522, 48 h, read-out: Activity"}, "CAKI-1 [4]": {"system": "CAKI-1", "experiment": "Growth inhibition of human CAKI-1 cells assessed as cell growth at 5X10'-7 M after 48 hrs by sulforhodamine B assay", "settings": "CAKI-1, 48 h, read-out: Activity"}, "HL-60(TB)": {"system": "HL-60(TB)", "experiment": "Growth inhibition of human HL-60(TB) cells assessed as cell growth at 5X10'-6 M after 48 hrs by sulforhodamine B assay", "settings": "HL-60, 48 h, read-out: Activity"}, "MDA-MB-435 [5]": {"system": "MDA-MB-435", "experiment": "Growth inhibition of human MDA-MB-435 cells assessed as cell growth at 5X10'-6 M after 48 hrs by sulforhodamine B assay", "settings": "MDA-MB-435, 48 h, read-out: Activity"}, "SNB-19 [6]": {"system": "SNB-19", "experiment": "Growth inhibition of human SNB19 cells assessed as cell growth at 5X10'-8 M after 48 hrs by sulforhodamine B assay", "settings": "SNB-19, 48 h, read-out: Activity"}, "MDA-MB-435 [7]": {"system": "MDA-MB-435", "experiment": "Growth inhibition of human MDA-MB-435 cells assessed as cell growth at 5X10'-5 M after 48 hrs by sulforhodamine B assay", "settings": "MDA-MB-435, 48 h, read-out: Activity"}, "T47D [8]": {"system": "T47D", "experiment": "Growth inhibition of human T47D cells assessed as cell growth at 5X10'-6 M after 48 hrs by sulforhodamine B assay", "settings": "read-out: Activity"}, "SNB-75 [9]": {"system": "SNB-75", "experiment": "Growth inhibition of human SNB75 cells assessed as cell growth at 5X10'-8 M after 48 hrs by sulforhodamine B assay", "settings": "SNB-75, 48 h, read-out: Activity"}, "DU-145": {"system": "DU-145", "experiment": "Growth inhibition of human DU145 cells assessed as cell growth at 5X10'-5 M after 48 hrs by sulforhodamine B assay", "settings": "DU-145, 48 h, read-out: Activity"}, "UACC-257 [10]": {"system": "UACC-257", "experiment": "Growth inhibition of human UACC257 cells assessed as cell growth at 5X10'-5 M after 48 hrs by sulforhodamine B assay", "settings": "UACC-257, 48 h, read-out: Activity"}, "HT-29": {"system": "HT-29", "experiment": "Growth inhibition of human HT-29 cells assessed as cell growth at 5X10'-5 M after 48 hrs by sulforhodamine B assay", "settings": "HT-29, 48 h, read-out: Activity"}, "UACC-257 [11]": {"system": "UACC-257", "experiment": "Growth inhibition of human UACC257 cells assessed as cell growth at 5X10'-8 M after 48 hrs by sulforhodamine B assay", "settings": "UACC-257, 48 h, read-out: Activity"}, "SK-MEL-2": {"system": "SK-MEL-2", "experiment": "Growth inhibition of human SK-MEL-2 cells assessed as cell growth at 5X10'-9 M after 48 hrs by sulforhodamine B assay", "settings": "SK-MEL-2, 48 h, read-out: Activity"}, "UACC-62 [12]": {"system": "UACC-62", "experiment": "Growth inhibition of human UACC62 cells assessed as cell growth at 5X10'-9 M after 48 hrs by sulforhodamine B assay", "settings": "UACC-62, 48 h, read-out: Activity"}, "CAKI-1 [13]": {"system": "CAKI-1", "experiment": "Growth inhibition of human CAKI-1 cells assessed as cell growth at 5X10'-9 M after 48 hrs by sulforhodamine B assay", "settings": "CAKI-1, 48 h, read-out: Activity"}, "IGROV-1": {"system": "IGROV-1", "experiment": "Growth inhibition of human IGROV1 cells assessed as cell growth at 5X10'-9 M after 48 hrs by sulforhodamine B assay", "settings": "IGROV-1, 48 h, read-out: Activity"}, "M14": {"system": "M14", "experiment": "Growth inhibition of human M14 cells assessed as cell growth at 5X10'-6 M after 48 hrs by sulforhodamine B assay", "settings": "M14, 48 h, read-out: Activity"}, "KM12": {"system": "KM12", "experiment": "Growth inhibition of human KM12 cells assessed as cell growth at 5X10'-8 M after 48 hrs by sulforhodamine B assay", "settings": "KM12, 48 h, read-out: Activity"}, "K562": {"system": "K562", "experiment": "Growth inhibition of human K562 cells assessed as cell growth at 5X10'-6 M after 48 hrs by sulforhodamine B assay", "settings": "K562, 48 h, read-out: Activity"}, "HCT-116": {"system": "HCT-116", "experiment": "Growth inhibition of human HCT116 cells assessed as cell growth at 5X10'-8 M after 48 hrs by sulforhodamine B assay", "settings": "HCT-116, 48 h, read-out: Activity"}, "OVCAR-8": {"system": "OVCAR-8", "experiment": "Growth inhibition of human OVCAR8 cells assessed as cell growth at 5X10'-7 M after 48 hrs by sulforhodamine B assay", "settings": "OVCAR-8, 48 h, read-out: Activity"}, "SNB-75 [14]": {"system": "SNB-75", "experiment": "Growth inhibition of human SNB75 cells assessed as cell growth at 5X10'-9 M after 48 hrs by sulforhodamine B assay", "settings": "SNB-75, 48 h, read-out: Activity"}, "A549": {"system": "A549", "experiment": "Growth inhibition of human A549/ATCC cells assessed as cell growth at 5X10'-5 M after 48 hrs by sulforhodamine B assay", "settings": "A549, 48 h, read-out: Activity"}, "MCF7": {"system": "MCF7", "experiment": "Growth inhibition of human MCF7 cells assessed as cell growth at 5X10'-9 M after 48 hrs by sulforhodamine B assay", "settings": "MCF7, 48 h, read-out: Activity"}, "SK-MEL-28": {"system": "SK-MEL-28", "experiment": "Growth inhibition of human SK-MEL-28 cells assessed as cell growth at 5X10'-5 M after 48 hrs by sulforhodamine B assay", "settings": "SK-MEL-28, 48 h, read-out: Activity"}, "UACC-62 [15]": {"system": "UACC-62", "experiment": "Growth inhibition of human UACC62 cells assessed as cell growth at 5X10'-5 M after 48 hrs by sulforhodamine B assay", "settings": "UACC-62, 48 h, read-out: Activity"}, "SNB-19 [16]": {"system": "SNB-19", "experiment": "Growth inhibition of human SNB19 cells assessed as cell growth at 5X10'-7 M after 48 hrs by sulforhodamine B assay", "settings": "SNB-19, 48 h, read-out: Activity"}, "SR": {"system": "SR", "experiment": "Growth inhibition of human SR cells assessed as cell growth at 5X10'-9 M after 48 hrs by sulforhodamine B assay", "settings": "read-out: Activity"}, "PC-3": {"system": "PC-3", "experiment": "Growth inhibition of human PC3 cells assessed as cell growth at 5X10'-7 M after 48 hrs by sulforhodamine B assay", "settings": "PC-3, 48 h, read-out: Activity"}},
  "data": [
    {"smiles": "COc1cc(-c2nn(-c3cccc(NC(=O)Nc4cc(C(F)(F)F)cc(C(F)(F)F)c4)c3)cc2-c2ccncc2)ccc1Cl", "values": [
      {"measurement": "growth at 0.05 µM", "setting": "T47D [1]", "value": 104, "unit": "%"},
      {"measurement": "growth at 0.5 µM", "setting": "MDA-MB-435 [2]", "value": 85, "unit": "%"},
      {"measurement": "growth at 0.5 µM", "setting": "NCI-H23", "value": 85, "unit": "%"},
      {"measurement": "growth at 50 µM", "setting": "HCT-15", "value": -75, "unit": "%"},
      {"measurement": "growth at 0.005 µM", "setting": "T47D [3]", "value": 101, "unit": "%"},
      {"measurement": "growth at 50 µM", "setting": "ACHN", "value": -34, "unit": "%"},
      {"measurement": "growth at 0.5 µM", "setting": "SK-MEL-5", "value": 74, "unit": "%"},
      {"measurement": "growth at 50 µM", "setting": "COLO 205", "value": -95, "unit": "%"},
      {"measurement": "growth at 5 µM", "setting": "NCI-H522", "value": -48, "unit": "%"},
      {"measurement": "growth at 0.5 µM", "setting": "CAKI-1 [4]", "value": 80, "unit": "%"},
      {"measurement": "growth at 5 µM", "setting": "HL-60(TB)", "value": 8, "unit": "%"},
      {"measurement": "growth at 5 µM", "setting": "MDA-MB-435 [5]", "value": -57, "unit": "%"},
      {"measurement": "growth at 0.05 µM", "setting": "SNB-19 [6]", "value": 91, "unit": "%"},
      {"measurement": "growth at 50 µM", "setting": "MDA-MB-435 [7]", "value": -64, "unit": "%"},
      {"measurement": "growth at 5 µM", "setting": "T47D [8]", "value": 10, "unit": "%"},
      {"measurement": "growth at 0.05 µM", "setting": "SNB-75 [9]", "value": 90, "unit": "%"},
      {"measurement": "growth at 50 µM", "setting": "DU-145", "value": -80, "unit": "%"},
      {"measurement": "growth at 50 µM", "setting": "UACC-257 [10]", "value": -54, "unit": "%"},
      {"measurement": "growth at 50 µM", "setting": "HT-29", "value": -77, "unit": "%"},
      {"measurement": "growth at 0.05 µM", "setting": "UACC-257 [11]", "value": 98, "unit": "%"},
      {"measurement": "growth at 0.005 µM", "setting": "SK-MEL-2", "value": 111, "unit": "%"},
      {"measurement": "growth at 0.005 µM", "setting": "UACC-62 [12]", "value": 97, "unit": "%"},
      {"measurement": "growth at 0.005 µM", "setting": "CAKI-1 [13]", "value": 95, "unit": "%"},
      {"measurement": "growth at 0.005 µM", "setting": "IGROV-1", "value": 109, "unit": "%"},
      {"measurement": "growth at 5 µM", "setting": "M14", "value": -29, "unit": "%"},
      {"measurement": "growth at 0.05 µM", "setting": "KM12", "value": 107, "unit": "%"},
      {"measurement": "growth at 5 µM", "setting": "K562", "value": -10, "unit": "%"},
      {"measurement": "growth at 0.05 µM", "setting": "HCT-116", "value": 106, "unit": "%"},
      {"measurement": "growth at 0.5 µM", "setting": "OVCAR-8", "value": 51, "unit": "%"},
      {"measurement": "growth at 0.005 µM", "setting": "SNB-75 [14]", "value": 94, "unit": "%"},
      {"measurement": "growth at 50 µM", "setting": "A549", "value": -65, "unit": "%"},
      {"measurement": "growth at 0.005 µM", "setting": "MCF7", "value": 92, "unit": "%"},
      {"measurement": "growth at 50 µM", "setting": "SK-MEL-28", "value": -87, "unit": "%"},
      {"measurement": "growth at 50 µM", "setting": "UACC-62 [15]", "value": -72, "unit": "%"},
      {"measurement": "growth at 0.5 µM", "setting": "SNB-19 [16]", "value": 61, "unit": "%"},
      {"measurement": "growth at 0.005 µM", "setting": "SR", "value": 102, "unit": "%"},
      {"measurement": "growth at 0.5 µM", "setting": "PC-3", "value": 33, "unit": "%"}
    ]}
  ]
}
